IC50, MIC and IC90 data for 5 compounds are collected here from patent publication US10800791B2, “Triazole ACC inhibitors and uses thereof” (Gilead Apollo, LLC, priority 2015, dated 2020).

pIC50: −log10 of the molar value. In brackets after ≈: the same amount, converted by molar mass. Like-named read-outs stand apart in the source and are kept apart here.

Assay [1] concerns the target human (hACC2) (Homo sapiens, UniProt O00763). Put plainly: In vitro ACC inhibition assay (ADP-Glo), hACC2. Type of assay: biochemical. The note with it: Table 2b, additional results, 5 nM ACC2, 20 μM ATP, 20 μM acetyl-CoA. Here is the method:
The detailed procedure is as follows. […] 10 μL ADP glo reagent was added. […] 20 μL kinase detection reagent was added.
(In ADP-Glo the light output rises with the ADP produced.)

The subject of assay [2] is C. albicans. Put plainly: Antifungal Activity Assay (broth microtiter MIC), C. albicans. Type of assay: cell-based, Candida albicans. The conditions noted are these: Candida albicans, ATCC90028, 48 h. In outline:
(§1)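 Broth microdilution per CLSI M27-A3 in RPMI 1640+MOPS, inoculum 2.5×10^3 CFU/mL final from overnight Sabouraud dextrose agar cultures at 35° C. Compounds diluted from DMSO stock to 128 μg/mL in water. MIC read visually versus growth control at 48 h.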

Assay [3] deals with C. krusei. The experiment in a line: Antifungal Activity Assay (broth microtiter MIC), C. krusei. Type of assay: cell-based, Candida krusei. The note with it: Pichia kudriavzevii, ATCC6258, 48 h. In outline: as §1
For assay [4], the system named is C. parapsilosis. Put plainly: Antifungal Activity Assay (broth microtiter MIC), C. parapsilosis. In kind it is cell-based, Candida parapsilosis. The note with it: Lodderomyces parapsilosis, ATCC22019, 48 h. In outline:
as §1

Assay [5] deals with Botrtyis cinerea (Bc). The experiment in a line: Growth inhibition assay of fungal pathogens, Bc. Type of assay: cell-based. The note with it: 48 h, growth inhibition at 48 hours vs 2% DMSO control. In outline:
(§2)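 Pathogen growth in 17% V8 broth is measured by OD600 at 24 and 48 hours, after blank subtraction, in the presence of compound at 50, 10 and 2 ppm or 2, 0.4 and 0.08 ppm. Inhibition in percent comes from 48-hour readings against the DMSO control.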

The test system of assay [6] is Collectotrichum graminicola (Cg). Put plainly: Growth inhibition assay of fungal pathogens, Cg. In kind it is cell-based. The note with it: 48 h, growth inhibition at 48 hours vs 2% DMSO control. In outline: as §2
The test system of assay [7] is Diplodia maydis (Dm). Put plainly: Growth inhibition assay of fungal pathogens, Dm. In kind it is cell-based. The conditions noted are these: Stenocarpella maydis, 48 h, growth inhibition at 48 hours vs 2% DMSO control. In short, it runs like this: as §2
The test system of assay [8] is Fusarium moniliforme (Fm). Put plainly: Growth inhibition assay of fungal pathogens, Fm. Type of assay: cell-based. The conditions noted are these: Fusarium verticillioides, 48 h, read-out: Concentration at 90% Inhibition Fm. In outline: as §2
Assay [9] has as its system Fusarium virguliforme (Fv). Put plainly: Growth inhibition assay of fungal pathogens, Fv. In kind it is cell-based. The note with it: 48 h. In outline: as §2
In assay [10] the test system is Phytophthora capsici (Pc). Put plainly: Growth inhibition assay of fungal pathogens, Pc. Type of assay: cell-based. The note with it: 48 h. In outline:
as §2

For assay [11], the system named is Rhizoctonia solani (Rs). The experiment in a line: Growth inhibition assay of fungal pathogens, Rs. The conditions noted are these: 48 h. In kind it is cell-based.
Assay [12] relates to Septoria tritici (St). Put plainly: Growth inhibition assay of fungal pathogens, St. Type of assay: cell-based. The note with it: Zymoseptoria tritici, 48 h, growth inhibition at 48 hours vs 2% DMSO control. In short, it runs like this:
as §2

For assay [13], the target named is fungal (fACC2) (UniProt Q00955). The conditions noted are these: read-out: fACC2 (in vitro ACC2 Inhibition Assay, IC50); Table 2b, additional results; ADP-Glo, 5 nM ACC2, 20 μM ATP, 20 μM acetyl-CoA.
Setting [14] is: Table 3b (additional results), ATCC 90028, 3 replicates, MIC recorded at 48 h, read-out: MIC, C. albicans ATCC 90028.
The mark [15] stands for this setting: Table 3b (additional results), ATCC 6258, 3 replicates, MIC recorded at 48 h, read-out: MIC, C. krusei ATCC 6258.
The mark [16] stands for this setting: Table 3b (additional results), ATCC 22019, 3 replicates, MIC recorded at 48 h, read-out: MIC, C. parapsilosis ATCC 22019.
Where [17] appears, read: Botrtyis cinerea, read-out: Concentration at 90% Inhibition Bc.
Where [18] appears, read: Collectotrichum graminicola, read-out: Concentration at 90% Inhibition Cg.
Setting [19] is: Diplodia maydis, read-out: Concentration at 90% Inhibition Dm.
[20] abbreviates: Fusarium moniliforme, growth inhibition at 48 hours vs 2% DMSO control.
Setting [21] is: growth inhibition at 48 hours vs 2% DMSO control, read-out: Concentration at 90% Inhibition Fv.
Where [22] appears, read: growth inhibition at 48 hours vs 2% DMSO control, read-out: Concentration at 90% Inhibition Pc.
The mark [23] stands for this setting: mycelial plugs, growth inhibition at 48 hours vs 2% DMSO control, read-out: Concentration at 90% Inhibition Rs.
Where [24] appears, read: Septoria tritici, read-out: Concentration at 90% Inhibition St.

Chain of human (hACC2) (O00763 whole entry): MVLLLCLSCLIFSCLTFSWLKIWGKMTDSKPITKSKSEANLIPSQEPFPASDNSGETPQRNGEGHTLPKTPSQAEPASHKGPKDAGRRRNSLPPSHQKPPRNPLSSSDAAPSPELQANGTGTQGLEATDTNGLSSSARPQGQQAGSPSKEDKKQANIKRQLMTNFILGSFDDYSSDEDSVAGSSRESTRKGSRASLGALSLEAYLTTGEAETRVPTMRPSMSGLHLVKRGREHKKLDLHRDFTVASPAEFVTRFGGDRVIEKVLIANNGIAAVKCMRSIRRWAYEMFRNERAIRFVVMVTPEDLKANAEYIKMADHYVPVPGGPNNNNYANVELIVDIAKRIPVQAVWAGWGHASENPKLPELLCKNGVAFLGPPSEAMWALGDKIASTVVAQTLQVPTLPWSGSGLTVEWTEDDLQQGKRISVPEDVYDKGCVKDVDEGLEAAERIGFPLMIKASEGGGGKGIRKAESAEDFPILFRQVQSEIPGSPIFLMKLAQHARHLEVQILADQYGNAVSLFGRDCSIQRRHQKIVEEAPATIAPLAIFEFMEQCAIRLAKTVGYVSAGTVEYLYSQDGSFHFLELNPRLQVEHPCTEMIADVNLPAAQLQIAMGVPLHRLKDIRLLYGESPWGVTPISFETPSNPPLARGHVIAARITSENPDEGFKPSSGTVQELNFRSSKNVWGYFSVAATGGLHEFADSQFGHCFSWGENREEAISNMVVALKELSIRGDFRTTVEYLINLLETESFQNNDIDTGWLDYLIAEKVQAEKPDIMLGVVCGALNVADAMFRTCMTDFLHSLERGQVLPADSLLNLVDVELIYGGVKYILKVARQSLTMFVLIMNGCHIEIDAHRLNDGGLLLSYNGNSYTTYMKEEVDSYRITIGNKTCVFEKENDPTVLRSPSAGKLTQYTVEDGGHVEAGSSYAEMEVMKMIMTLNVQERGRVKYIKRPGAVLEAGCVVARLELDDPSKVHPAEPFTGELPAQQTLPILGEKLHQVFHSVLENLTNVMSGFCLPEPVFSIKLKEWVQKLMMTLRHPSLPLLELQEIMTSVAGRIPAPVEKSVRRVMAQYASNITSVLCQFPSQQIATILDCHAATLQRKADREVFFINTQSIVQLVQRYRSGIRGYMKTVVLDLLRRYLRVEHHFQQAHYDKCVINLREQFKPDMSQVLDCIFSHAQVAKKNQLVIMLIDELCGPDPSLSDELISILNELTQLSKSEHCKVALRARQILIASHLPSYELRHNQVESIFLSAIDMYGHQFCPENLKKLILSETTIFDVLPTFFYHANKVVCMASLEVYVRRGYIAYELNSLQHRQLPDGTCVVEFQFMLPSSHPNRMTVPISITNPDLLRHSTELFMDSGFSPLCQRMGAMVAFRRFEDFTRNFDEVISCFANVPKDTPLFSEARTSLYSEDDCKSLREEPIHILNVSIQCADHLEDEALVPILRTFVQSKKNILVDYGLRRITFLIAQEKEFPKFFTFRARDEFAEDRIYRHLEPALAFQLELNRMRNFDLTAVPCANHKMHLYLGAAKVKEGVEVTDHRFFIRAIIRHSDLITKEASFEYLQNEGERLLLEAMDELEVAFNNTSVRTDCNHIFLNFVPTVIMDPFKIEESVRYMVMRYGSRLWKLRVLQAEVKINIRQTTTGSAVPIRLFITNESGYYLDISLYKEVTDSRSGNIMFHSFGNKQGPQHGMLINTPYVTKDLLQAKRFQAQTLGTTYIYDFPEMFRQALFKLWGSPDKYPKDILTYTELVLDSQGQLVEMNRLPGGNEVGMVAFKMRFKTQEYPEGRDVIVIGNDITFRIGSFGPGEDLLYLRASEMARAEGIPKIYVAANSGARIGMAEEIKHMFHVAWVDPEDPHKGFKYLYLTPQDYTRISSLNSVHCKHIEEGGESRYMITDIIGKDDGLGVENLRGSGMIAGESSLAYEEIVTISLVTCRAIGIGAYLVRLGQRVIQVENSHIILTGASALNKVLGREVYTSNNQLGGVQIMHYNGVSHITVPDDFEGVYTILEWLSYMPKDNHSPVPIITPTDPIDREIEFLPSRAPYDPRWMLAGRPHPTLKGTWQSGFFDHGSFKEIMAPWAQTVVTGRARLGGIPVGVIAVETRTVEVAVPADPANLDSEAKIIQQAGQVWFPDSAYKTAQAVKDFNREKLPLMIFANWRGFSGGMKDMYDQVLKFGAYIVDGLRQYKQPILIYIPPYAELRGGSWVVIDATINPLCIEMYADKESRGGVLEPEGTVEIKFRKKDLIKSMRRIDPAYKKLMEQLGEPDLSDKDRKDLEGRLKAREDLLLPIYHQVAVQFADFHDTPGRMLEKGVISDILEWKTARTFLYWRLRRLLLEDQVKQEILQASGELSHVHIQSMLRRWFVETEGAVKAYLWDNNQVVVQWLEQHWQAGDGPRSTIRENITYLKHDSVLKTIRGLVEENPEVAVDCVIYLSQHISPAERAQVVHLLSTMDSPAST
Chain of fungal (fACC2) (Q00955 whole entry): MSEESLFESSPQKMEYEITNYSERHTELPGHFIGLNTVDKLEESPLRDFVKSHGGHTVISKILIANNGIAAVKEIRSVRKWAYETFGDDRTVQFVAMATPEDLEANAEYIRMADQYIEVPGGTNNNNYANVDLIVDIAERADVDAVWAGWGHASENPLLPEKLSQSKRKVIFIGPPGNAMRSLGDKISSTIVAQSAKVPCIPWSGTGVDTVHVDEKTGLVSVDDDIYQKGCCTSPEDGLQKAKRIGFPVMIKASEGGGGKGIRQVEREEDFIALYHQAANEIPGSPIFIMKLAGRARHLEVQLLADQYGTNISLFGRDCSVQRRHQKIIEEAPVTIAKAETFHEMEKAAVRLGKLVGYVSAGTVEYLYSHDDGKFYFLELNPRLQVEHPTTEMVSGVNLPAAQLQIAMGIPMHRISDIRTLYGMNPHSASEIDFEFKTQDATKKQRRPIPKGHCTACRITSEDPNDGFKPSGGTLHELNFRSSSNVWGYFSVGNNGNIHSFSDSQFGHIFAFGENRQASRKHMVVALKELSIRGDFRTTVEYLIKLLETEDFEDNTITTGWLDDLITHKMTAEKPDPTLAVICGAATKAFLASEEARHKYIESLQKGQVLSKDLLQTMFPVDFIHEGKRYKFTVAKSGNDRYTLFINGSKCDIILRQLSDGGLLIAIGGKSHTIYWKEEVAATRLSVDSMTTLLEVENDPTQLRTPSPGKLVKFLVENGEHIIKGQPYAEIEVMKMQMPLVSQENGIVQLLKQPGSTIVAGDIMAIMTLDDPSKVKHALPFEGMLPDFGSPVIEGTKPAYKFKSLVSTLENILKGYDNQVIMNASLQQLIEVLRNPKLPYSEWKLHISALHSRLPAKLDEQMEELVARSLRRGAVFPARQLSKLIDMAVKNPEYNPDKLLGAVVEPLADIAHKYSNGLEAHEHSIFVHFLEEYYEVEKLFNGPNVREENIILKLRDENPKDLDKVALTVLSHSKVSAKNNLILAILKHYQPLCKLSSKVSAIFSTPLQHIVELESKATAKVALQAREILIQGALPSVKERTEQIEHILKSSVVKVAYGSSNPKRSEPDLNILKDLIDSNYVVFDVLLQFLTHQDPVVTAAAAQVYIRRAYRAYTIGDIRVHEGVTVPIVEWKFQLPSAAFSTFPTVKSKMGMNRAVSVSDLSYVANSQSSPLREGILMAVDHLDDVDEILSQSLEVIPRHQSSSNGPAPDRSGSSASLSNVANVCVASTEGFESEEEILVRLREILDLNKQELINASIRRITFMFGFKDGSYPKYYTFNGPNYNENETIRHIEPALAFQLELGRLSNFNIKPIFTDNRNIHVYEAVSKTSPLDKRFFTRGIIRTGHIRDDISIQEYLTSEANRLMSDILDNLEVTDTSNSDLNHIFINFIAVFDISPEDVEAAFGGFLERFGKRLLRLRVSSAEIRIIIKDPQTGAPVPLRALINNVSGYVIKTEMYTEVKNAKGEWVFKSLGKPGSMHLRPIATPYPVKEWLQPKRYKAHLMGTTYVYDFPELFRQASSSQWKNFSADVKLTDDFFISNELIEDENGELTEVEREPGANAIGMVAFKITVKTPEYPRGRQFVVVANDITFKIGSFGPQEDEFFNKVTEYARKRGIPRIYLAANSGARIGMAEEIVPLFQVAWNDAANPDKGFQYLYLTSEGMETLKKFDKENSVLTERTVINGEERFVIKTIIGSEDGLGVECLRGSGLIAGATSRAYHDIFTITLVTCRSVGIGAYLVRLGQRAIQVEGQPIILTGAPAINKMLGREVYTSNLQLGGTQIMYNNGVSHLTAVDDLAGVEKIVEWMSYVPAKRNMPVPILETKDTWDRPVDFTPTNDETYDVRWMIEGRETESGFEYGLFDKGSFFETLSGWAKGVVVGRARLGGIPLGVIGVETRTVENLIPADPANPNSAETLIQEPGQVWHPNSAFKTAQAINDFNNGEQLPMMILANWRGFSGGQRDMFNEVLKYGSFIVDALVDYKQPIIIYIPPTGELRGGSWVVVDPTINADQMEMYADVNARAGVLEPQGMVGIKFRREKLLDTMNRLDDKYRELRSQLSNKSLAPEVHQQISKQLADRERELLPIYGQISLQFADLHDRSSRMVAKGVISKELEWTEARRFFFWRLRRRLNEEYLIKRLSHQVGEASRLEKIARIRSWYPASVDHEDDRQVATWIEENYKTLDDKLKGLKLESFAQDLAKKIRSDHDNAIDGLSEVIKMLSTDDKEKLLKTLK

Turning to `COc1ccccc1[C@H](O)Cn1c(=O)n(C(C)(C)C(=O)NC(C)C)c(=O)c2c(C)c(-n3nccn3)sc21` [Compound I-251], the pIC50 (in general, −log10 of the IC50, conventionally taken in molar units) in assay [1] was 7.40 to 8.00; in assay [13], 8.30 to 9.00. In addition, the MIC – broadly, the lowest concentration found to suppress growth – in [2] (read-out: MIC, C. albicans ATCC 90028, Table 3b (additional results), 3 replicates, MIC recorded at 48 h) lay in the range of 1.01 to 2 µg/mL (≈ 1.92 to 3.8 µM); in assay [3] (read-out: MIC, C. krusei ATCC 6258, Table 3b (additional results), 3 replicates, MIC recorded at 48 h), 0.25 to 1 µg/mL (≈ 0.475 to 1.9 µM); in assay [4] (read-out: MIC, C. parapsilosis ATCC 22019, Table 3b (additional results), 3 replicates, MIC recorded at 48 h), 0.25 to 1 µg/mL (≈ 0.475 to 1.9 µM). Besides, the IC90 in assay [5] (read-out: Concentration at 90% Inhibition Bc, Botrtyis cinerea) was 10 µg/mL (≈ 19 µM); in [6] (read-out: Concentration at 90% Inhibition Cg, Collectotrichum graminicola), greater than 50 µg/mL; in [7] (read-out: Concentration at 90% Inhibition Dm, Diplodia maydis) it was greater than 50 µg/mL; in assay [8], 2 µg/mL (≈ 3.8 µM); in [9] (read-out: Concentration at 90% Inhibition Fv, Fusarium virguliforme, growth inhibition at 48 hours vs 2% DMSO control), 2 µg/mL (≈ 3.8 µM); in assay [10] (read-out: Concentration at 90% Inhibition Pc, Phytophthora capsici, growth inhibition at 48 hours vs 2% DMSO control) it was greater than 50 µg/mL. Further, the IC90 in assay [11] (read-out: Concentration at 90% Inhibition Rs, Rhizoctonia solani, mycelial plugs, growth inhibition at 48 hours vs 2% DMSO control) was 2 µg/mL (≈ 3.8 µM); in assay [12] (read-out: Concentration at 90% Inhibition St, Septoria tritici) it was greater than 50 µg/mL.

In the case of `CCNC(=O)[C@@H](C)n1c(=O)c2c(C)c(-n3nccn3)sc2n(C[C@H](OCCC#N)c2cc(F)ccc2OC)c1=O` [Compound I-252], the pIC50 in [1] and in assay [13] was 8.30 to 9.00 in each case. The MIC in assay [2] (setting [14]) is greater than 4.01 µg/mL; in [3] (setting [15]), greater than 4.01 µg/mL; in [4] (setting [16]), 2.01 to 4 µg/mL (≈ 3.53 to 7.02 µM). Also, the IC90 in [5] (setting [17]) came out at 2 µg/mL (≈ 3.51 µM); in assay [6] (setting [18]) it was 0.08 µg/mL (≈ 0.14 µM); in [7] (setting [19]), 0.4 µg/mL (≈ 0.702 µM); in assay [8] (setting [20]), 0.08 µg/mL (≈ 0.14 µM); in assay [9] (setting [21]) it was 0.4 µg/mL (≈ 0.702 µM); in assay [10] (setting [22]) it was 10 µg/mL (≈ 17.6 µM). Moreover, the IC90 was 0.08 µg/mL (≈ 0.14 µM) in [11] (setting [23]) and greater than 50 µg/mL in [12] (setting [24]).

Consider `CCNC(=O)[C@H](C)n1c(=O)c2c(C)c(-n3nccn3)sc2n(C[C@H](OCCC#N)c2cc(F)ccc2OC)c1=O` [Compound I-253], for which the pIC50 in assay [1] was 8.00 to 8.30; in [13], 9.00 to 9.52. Also, the MIC in assay [2] (setting [14]) is greater than 4.01 µg/mL; in assay [3] (setting [15]), greater than 4.01 µg/mL; in assay [4] (setting [16]) it was 2.01 to 4 µg/mL (≈ 3.53 to 7.02 µM). Besides, the IC90 was 2 µg/mL (≈ 3.51 µM) in assay [5] (setting [17]); 10 µg/mL (≈ 17.6 µM) in assay [6] (setting [18]); 10 µg/mL (≈ 17.6 µM) in [7] (setting [19]); 0.4 µg/mL (≈ 0.702 µM) in [8] (setting [20]); 10 µg/mL (≈ 17.6 µM) in assay [9] (setting [21]); greater than 50 µg/mL in [10] (setting [22]). In addition, the values for the IC90 in assay [11] (setting [23]) and in [12] (setting [24]) were 2 µg/mL (≈ 3.51 µM) and greater than 50 µg/mL, respectively.

Take `CCNC(=O)C(C)(C)n1c(=O)c2c(C)c(-n3nccn3)sc2n(C[C@@H](O)c2cc(F)ccc2OC)c1=O` [Compound I-254]: the pIC50 in assay [1] was less than 7.40; in [13], 8.30 to 9.00. In addition, the MIC in [2] (setting [14]), in [3] (setting [15]) and in [4] (setting [16]) was 2.01 to 4 µg/mL (≈ 3.79 to 7.54 µM) throughout. Also, the IC90 in [5] (setting [17]) is greater than 50 µg/mL; in assay [6] (setting [18]), greater than 50 µg/mL; in [7] (setting [19]), greater than 50 µg/mL; in [8] (setting [20]), 10 µg/mL (≈ 18.8 µM); in assay [9] (setting [21]), greater than 50 µg/mL; in assay [10] (setting [22]) it was greater than 50 µg/mL. Besides, the values for the IC90 in assay [11] (setting [23]) and in assay [12] (setting [24]) were 2 µg/mL (≈ 3.77 µM) and greater than 50 µg/mL, respectively.

As to `CCNC(=O)C(C)(C)n1c(=O)c2c(C)c(-n3nccn3)sc2n(C[C@H](O)c2cc(F)ccc2OC)c1=O` [Compound I-255], the pIC50 in assay [1] is 7.40 to 8.00; in [13] it was 9.00 to 9.52. Besides, the MIC in assay [2] (setting [14]), in assay [3] (setting [15]) and in assay [4] (setting [16]) was 2.01 to 4 µg/mL (≈ 3.79 to 7.54 µM) throughout. Also, the IC90 in [5] (setting [17]) is 2 µg/mL (≈ 3.77 µM); in assay [6] (setting [18]) it was 2 µg/mL (≈ 3.77 µM); in [7] (setting [19]), 2 µg/mL (≈ 3.77 µM); in assay [8] (setting [20]) it was 0.08 µg/mL (≈ 0.151 µM); in [9] (setting [21]), 0.4 µg/mL (≈ 0.754 µM); in [10] (setting [22]), greater than 50 µg/mL. For the same compound, the IC90 in assay [11] (setting [23]) was 0.4 µg/mL (≈ 0.754 µM); in [12] (setting [24]) it was greater than 50 µg/mL.
